Source: patent publication US7875652B2, “Method and composition for treating pain or tinnitus aureum” (UCB Pharma GmbH, priority 2001, dated 2011)
Marks after values point to notes of the source that are not given here.

Columns and labels:
[1] = system: Carrageenan-induced mechanical hyperalgesia; test: Carrageenan-induced mechanical hyperalgesia, paw pressure (Randall-Sellito) test; assay type: in vivo, rats; details: for Effect on Carrageenan-induced mechanical hyperalgesia: all doses tested (10, 20, 40 mg/kg i.p.)
Method: Carrageenan-induced mechanical hvderalcesia in rats was induced by subplantar injection of a 0.1 ml of a 2% carrageenan suspension and measured 3 h afterwards by the paw pressure (Randall-Sellito) test.
(§1) Drugs and experimental design: SPM 927 and GBP were suspended in 1% methylcellulose and administered i.p. at doses of 10 mg/kg, 20 mg/kg and 40 mg/kg. Pre-treatment time was 30 min before pain measurement. One group of animals served as controls and consequently received an injection of solvent (10 ml/kg) and another group of animals received a reference compound (Carrageenan test: 10 mg/kg indomethacin; Formalin test: 10 mg/kg morphine). Each compound was tested in a separate experiment and each experiment included a control and a reference group. 10 rats per group were used in the Carrageenan test and 6 mice per group in the formalin test.

[2] = system: formalin-induced nociception (paw licking); test: Subchronic inflammatory nociception in mice (formalin test); assay type: in vivo; details: for Nociceptive response induced by formalin: 10, 20, 40 mg/kg i.p.; for nociceptive threshold [s]: late phase (20-30 min), 10 mg/kg i.p.
Method: Subchronic inflammatory nocicoetion in mice was induced by the subplantar injection of formalin (0.02 ml of a 5% solution). Nociceptive behaviour (paw licking) was measured and quantified between 0 and 5 min (acute pain) and between 20 and 30 min (subchronic inflammatory pain) after formalin.
as §1

[3] = system: mechanical allodynia induced by unilateral nerve ligation; test: Chronic constriction injury (CCI) model, mechanical allodynia (Von Frey); assay type: in vivo, rat; details: 5-40 mg/kg i.p.
Method: (§2) The effectiveness of harkoseride in reducing spontaneous chronic pain, mechanical allodynia, and thermal hyperalgesia was tested using the chronic constriction injury (CCI) model of peripheral neuropathy, one of the best characterised in vivo animal models used to study chronic pain due to peripheral nerve injury. In this model, loose ligatures are placed around the sciatic nerve, which produces axonal swelling and a partial deafferentation manifested as a significant but incomplete loss of axons in the distal portion of the peripheral nerve. One of the prominent behaviours seen following sciatic nerve ligation is the appearance of hind paw guarding, thought to be an indication of an ongoing spontaneous chronic pain. Support for this idea is derived from reports of increased spinal cord neural activity, and increased spontaneous neuronal discharge in spinothalamic tract neurons and in the ventrobasal thalamus in the absence of overt peripheral stimulation. In addition to the appearance of spontaneous pain behaviours, several abnormalities in stimulus evoked pain occur as a result of CCI, including thermal hyperalgesia and mechanical allodynia. […]
Mechanical sensitivity and allodynia of the ligated rat hind paw was quantified by brisk foot withdrawal in response to normally innocuous mechanical stimuli as described previously. […]

[4] = system: acute spinal thermal nociception; test: Tail flick test, rat; assay type: in vivo
Excerpt: Harkoseride was additionally tested for potential activity in acute spinal thermal nociception using the tail flick test. In this model of acute thermal spinal/reflex hyperalgesia radiant heat is applied to the animal's tail approximately 2 cm from the tip and time latency for withdrawal reaction is automatically assessed by an algometer, a defined maximal stimulus time prevents tissue damage. This test is widely used as an assay for the anti-nociceptive efficacy of pharmacological agents and is highly predictive of acute analgesic efficacy in humans.
Results for 20 and 40 mg/kg harkoseride i.p are shown in table 5 [percent anti-nociception, calculated as [{(post-drug latency)−(pre-drug-latency)}/{(max. latency)−(pre-drug latency)}×100]±SEM, n=12/group]. A baseline or pre-drug tail-flick latency was determined by averaging 5 consecutive measurements taken 2 minutes apart. Vehicle (sterile water 0.04 ml/10 g body weight) or harkoseride were then administered and tail flick latencies recorded at 10-minute intervals for the next 60 minutes.

[5] = system: formalin-induced tonic inflammatory nociceptive behaviour; test: Formalin test, rat (weighted behavioural scoring); assay type: in vivo
Method: The formalin test is a chemically-induced tonic pain model in which biphasic changes of nociceptive behaviour are assessed and spinal/supraspinal plasticity of nociception is considered as a molecular basis for neuropathic pain particularly during the second (=late) phase of the test, during which most clinically used drugs against neuropathic pain are active.
The compound was tested for anti-nociceptive properties by use of the weighted behavioural scoring method: Freely moving animals underwent observational assessment of the position of the left hind paw according to a rating score scaled 0-3 before and 10, 20, 30 and 40 min after injection of 0.05 ml of sterile 2.5% formalin under the skin on the dorsal surface of the paw.

[6] = system: spontaneous pain induced by unilateral chronic constriction injury; test: Chronic constriction injury (CCI, Bennett-model), spontaneous pain; assay type: in vivo, rat; details: 5-40 mg/kg i.p.
Method: as §2
Spontaneous pain (ongoing pain without an apparent external stimulus) of the ligated paw was assessed for 5 min following a 10 min acclimation period by use of a rating score (weighted behaviour score scaled 0-5).

[7] = system: neuropathic pain (CHUNG), tactile stimulation; test: Neuropathic pain (CHUNG) test, tactile stimulation on lesioned paw; assay type: in vivo, rat; details: tactile and thermal stimulation
Excerpt: The following Tables 8 and 9 show the effects of harkoseride (hereinafter referred to as SPM 927), carbamazepine, levetiracetam, gabapentin and morphine in the neuropathic pain (CHUNG) test in the rat. Eight (8) rats per group were used.

[8] = system: chronic constriction injury-induced thermal hyperalgesia; test: Chronic constriction injury (CCI) model, thermal hyperalgesia; assay type: in vivo, rat; details: 5-40 mg/kg i.p.
Method: as §2
Thermal hyperalgesia was assessed by means of withdrawal latency in response to radiant heat applied to the subplantar surface of the ligated rat hind paw. […]

Structure (SMILES) | Effect on Carrageenan-induced mechanical hyperalgesia [1] | Nociceptive response induced by formalin [2] | nociceptive threshold [s] ([2]; GBP experiment) | nociceptive threshold [s] ([2]; SPM 927 experiment) | Antinociceptive effect relative to reference compound ([1]; vs 10 mg/kg indomethacin) | Intensity of mechanical allodynia induced by unilateral nerve ligation [3] | Effect on the latency of the tail flick reflex ([4]; 20 and 40 mg/kg i.p.) | Anti-nociceptive effect detectable in the tail-flick test ([4]; rat, in vivo) | Efficacy on formalin-induced nociception, similar to that of morphine ([2]; mouse, in vivo) | Formalin-induced tonic inflammatory nociceptive behaviour ([5]; i.p. just prior to formalin injection) | Efficacy in the late phase of the rat formalin test ([5]; late phase) | Level of spontaneous pain induced by unilateral chronic constriction injury [6] | Potency compared with the reference compounds in the CHUNG test [7] | Chronic constriction injury-induced thermal hyperalgesia [8]
NCC1(CC(=O)O)CCCCC1 [GBP, gabapentin, reference compound] | no significant effect | slightly but not significantly inhibited |  |  |  |  |  |  |  |  |  |  |  | 
CN1CC[C@]23c4c5ccc(O)c4O[C@H]2[C@@H](O)C=C[C@H]3[C@H]1C5 [Morphine, morphine] |  |  | 0 ± 0^a s | 10 ± 8^a s |  |  |  |  |  |  |  |  |  | 
COC[C@@H](NC(C)=O)C(=O)NCc1ccccc1 [SPM 927, (R)-2-Acetamido-N-benzyl-3-methoxypropionamide] | full reversal | dose dependently suppressed |  |  | comparable to that of the reference compound Indomethacin | dose dependently reduced | little or no effect | no anti-nociceptive effect | near complete reversal | dose dependant reduction | Significant and dose dependent efficacy | did not change | minimum comparable, but usually more potent than the reference compounds | dose dependently reduced
